Laboratory results reported in PubChem BioAssay (NCI).
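Results reflect a 48-hour exposure of cells in 96-well plates to compound at five concentrations. GI50: concentration for 50% inhibition of growth. TGI: concentration producing complete growth inhibition.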

Key:
Experiment in all cases: inhibition of tumour cell growth, NCI panel, 48 h
786-0 renal = test system: 786-0 renal
A498 renal = test system: A498 renal
A549 NSCLC = test system: A549 NSCLC
ACHN renal = test system: ACHN renal
BT-549 breast = test system: BT-549 breast
CAKI-1 renal = test system: CAKI-1 renal
CCRF-CEM leukemia = test system: CCRF-CEM leukemia
COLO 205 colon = test system: COLO 205 colon
DU-145 prostate = test system: DU-145 prostate
HCC-2998 colon = test system: HCC-2998 colon
HCT-116 colon = test system: HCT-116 colon
HCT-15 colon = test system: HCT-15 colon
HL-60(TB) leukemia = test system: HL-60(TB) leukemia
HOP-62 NSCLC = test system: HOP-62 NSCLC
HOP-92 NSCLC = test system: HOP-92 NSCLC
HS 578T breast = test system: HS 578T breast
HT29 colon = test system: HT29 colon
IGROV1 ovarian = test system: IGROV1 ovarian
K-562 leukemia = test system: K-562 leukemia
KM12 colon = test system: KM12 colon
M14 melanoma = test system: M14 melanoma
MALME-3M melanoma = test system: MALME-3M melanoma
MCF7 breast = test system: MCF7 breast
MDA-MB-231 breast = test system: MDA-MB-231 breast
MDA-MB-435 = test system: MDA-MB-435
MOLT-4 leukemia = test system: MOLT-4 leukemia
NCI-H226 lung = test system: NCI-H226 lung
NCI-H23 lung = test system: NCI-H23 lung
NCI-H460 lung = test system: NCI-H460 lung
NCI/ADR-RES ovarian = test system: NCI/ADR-RES ovarian
OVCAR-3 ovarian = test system: OVCAR-3 ovarian
OVCAR-4 ovarian = test system: OVCAR-4 ovarian
OVCAR-5 ovarian = test system: OVCAR-5 ovarian
OVCAR-8 ovarian = test system: OVCAR-8 ovarian
PC-3 prostate = test system: PC-3 prostate
RPMI-8226 leukemia = test system: RPMI-8226 leukemia
RXF 393 renal = test system: RXF 393 renal
SF-268 CNS = test system: SF-268 CNS
SF-295 CNS = test system: SF-295 CNS
SF-539 CNS = test system: SF-539 CNS
SK-MEL-2 melanoma = test system: SK-MEL-2 melanoma
SK-MEL-28 melanoma = test system: SK-MEL-28 melanoma
SK-MEL-5 melanoma = test system: SK-MEL-5 melanoma
SK-OV-3 ovarian = test system: SK-OV-3 ovarian
SN12C renal = test system: SN12C renal
SNB-19 CNS = test system: SNB-19 CNS
SNB-75 CNS = test system: SNB-75 CNS
SR leukemia = test system: SR leukemia
SW-620 colon = test system: SW-620 colon
T-47D breast = test system: T-47D breast
TK-10 renal = test system: TK-10 renal
U251 CNS = test system: U251 CNS
UACC-257 melanoma = test system: UACC-257 melanoma
UACC-62 melanoma = test system: UACC-62 melanoma
UO-31 renal = test system: UO-31 renal

For `C[C@]12CC[C@@H]3c4ccc(O)cc4CC[C@H]3[C@@H]1CC[C@@H]2NS(=O)(=O)c1ccc2ccccc2c1`, the GI50 (786-0 renal) was 2.96 µM, the TGI (786-0 renal) was 8.9 µM and the GI50 (A498 renal) was 1.72 µM. The TGI (A498 renal) was 4.01 µM, the GI50 (A549 NSCLC) was 3.24 µM and the TGI (A549 NSCLC) was 13.2 µM. The GI50 (ACHN renal) was 2.95 µM, the TGI (ACHN renal) was 10.5 µM and the GI50 (BT-549 breast) was 2.92 µM. It also gave a TGI (BT-549 breast) of 8.59 µM, a GI50 (CAKI-1 renal) of 3.16 µM and a TGI (CAKI-1 renal) of 10.4 µM. The GI50 (CCRF-CEM leukemia) was 2.94 µM, the TGI (CCRF-CEM leukemia) was > 100 µM and the GI50 (COLO 205 colon) was 1.94 µM. It also gave a TGI (COLO 205 colon) of 3.37 µM, a GI50 (DU-145 prostate) of 4.14 µM and a TGI (DU-145 prostate) of 17.5 µM. The GI50 (HCC-2998 colon) was 4.24 µM, the TGI (HCC-2998 colon) was 15.5 µM and the GI50 (HCT-116 colon) was 2.98 µM. For the same compound, the TGI (HCT-116 colon) was 10.6 µM, the GI50 (HCT-15 colon) was 2.89 µM and the TGI (HCT-15 colon) was 10.5 µM. For the same compound, the GI50 (HL-60(TB) leukemia) was 3.31 µM, the TGI (HL-60(TB) leukemia) was 13.7 µM and the GI50 (HOP-62 NSCLC) was 5.87 µM. It also gave a TGI (HOP-62 NSCLC) of 20.2 µM, a GI50 (HOP-92 NSCLC) of 1.83 µM and a TGI (HOP-92 NSCLC) of 7.14 µM. For the same compound, the GI50 (HS 578T breast) was 2.21 µM, the TGI (HS 578T breast) was 7.14 µM and the GI50 (HT29 colon) was 2.47 µM. For the same compound, the TGI (HT29 colon) was 6.11 µM, the GI50 (IGROV1 ovarian) was 4.1 µM and the TGI (IGROV1 ovarian) was 17.2 µM. For the same compound, the GI50 (K-562 leukemia) was 3.42 µM, the TGI (K-562 leukemia) was > 100 µM and the GI50 (KM12 colon) was 1.92 µM. It also gave a TGI (KM12 colon) of 4.06 µM, a GI50 (M14 melanoma) of 3.2 µM and a TGI (M14 melanoma) of 10.5 µM. It also gave a GI50 (MALME-3M melanoma) of 2.56 µM, a TGI (MALME-3M melanoma) of 8.06 µM and a GI50 (MCF7 breast) of 3.36 µM. For the same compound, the TGI (MCF7 breast) was 9.48 µM, the GI50 (MDA-MB-231 breast) was 1.81 µM and the TGI (MDA-MB-231 breast) was 4.68 µM. It also gave a GI50 (MDA-MB-435) of 2.31 µM, a TGI (MDA-MB-435) of 5.89 µM and a GI50 (MOLT-4 leukemia) of 3.37 µM. The TGI (MOLT-4 leukemia) was > 100 µM, the GI50 (NCI-H226 lung) was 2.98 µM and the TGI (NCI-H226 lung) was 11.5 µM. The GI50 (NCI-H23 lung) was 3.34 µM, the TGI (NCI-H23 lung) was 14.8 µM and the GI50 (NCI-H460 lung) was 2.21 µM. It also gave a TGI (NCI-H460 lung) of 4.97 µM, a GI50 (NCI/ADR-RES ovarian) of 2.61 µM and a TGI (NCI/ADR-RES ovarian) of 8 µM. The GI50 (OVCAR-3 ovarian) was 2.63 µM, the TGI (OVCAR-3 ovarian) was 7.3 µM and the GI50 (OVCAR-4 ovarian) was 1.98 µM. It also gave a TGI (OVCAR-4 ovarian) of 9.36 µM, a GI50 (OVCAR-5 ovarian) of 3.4 µM and a TGI (OVCAR-5 ovarian) of 13.4 µM. The GI50 (OVCAR-8 ovarian) was 3.16 µM, the TGI (OVCAR-8 ovarian) was 11.8 µM and the GI50 (PC-3 prostate) was 2.75 µM. For the same compound, the TGI (PC-3 prostate) was 17.3 µM, the GI50 (RPMI-8226 leukemia) was 2.93 µM and the TGI (RPMI-8226 leukemia) was 9.94 µM. The GI50 (RXF 393 renal) was 1.84 µM, the TGI (RXF 393 renal) was 4.33 µM and the GI50 (SF-268 CNS) was 3.68 µM. It also gave a TGI (SF-268 CNS) of 18.4 µM, a GI50 (SF-295 CNS) of 2.25 µM and a TGI (SF-295 CNS) of 6.03 µM. The GI50 (SF-539 CNS) was 2.11 µM, the TGI (SF-539 CNS) was 6.1 µM and the GI50 (SK-MEL-2 melanoma) was 2.75 µM. For the same compound, the TGI (SK-MEL-2 melanoma) was 7.94 µM, the GI50 (SK-MEL-28 melanoma) was 2.31 µM and the TGI (SK-MEL-28 melanoma) was 5.92 µM. The GI50 (SK-MEL-5 melanoma) was 1.78 µM, the TGI (SK-MEL-5 melanoma) was 3.36 µM and the GI50 (SK-OV-3 ovarian) was 5.79 µM. The TGI (SK-OV-3 ovarian) was 36.4 µM, the GI50 (SN12C renal) was 1.94 µM and the TGI (SN12C renal) was 4.25 µM. The GI50 (SNB-19 CNS) was 4.17 µM, the TGI (SNB-19 CNS) was > 100 µM and the GI50 (SNB-75 CNS) was 2.1 µM. It also gave a TGI (SNB-75 CNS) of 12.6 µM, a GI50 (SR leukemia) of 3.72 µM and a TGI (SR leukemia) of 95 µM. It also gave a GI50 (SW-620 colon) of 3.4 µM, a TGI (SW-620 colon) of 15.7 µM and a GI50 (T-47D breast) of 3.9 µM. The TGI (T-47D breast) was 16.3 µM, the GI50 (TK-10 renal) was 3.52 µM and the TGI (TK-10 renal) was 12.8 µM. For the same compound, the GI50 (U251 CNS) was 3.6 µM, the TGI (U251 CNS) was 15.4 µM and the GI50 (UACC-257 melanoma) was 3.3 µM. For the same compound, the TGI (UACC-257 melanoma) was 17.6 µM, the GI50 (UACC-62 melanoma) was 1.75 µM and the TGI (UACC-62 melanoma) was 3.9 µM. The GI50 (UO-31 renal) was 1.83 µM and the TGI (UO-31 renal) was 5.57 µM.
